From US4594358A, “Analgesic method” (Eli Lilly and Company, priority 1985, dated 1986)
Counter-ions that a name gives are not always drawn. Like-named read-outs stand apart in the source and are kept apart here.

Tests used:
[1] = test system: monoamine uptake, especially serotonin; settings: U.S. Pat. No. 4,313,896; cited from earlier work
mouse writhing = mouse writhing assay (acetic acid induced); type: in vivo, mouse (albino male mice); settings: for ability to potentiate analgesic effect of dextropropoxyphene (in words): mouse, in vivo; for Percent Inhibition of Writhing: Table 4, dextropropoxyphene napsylate 40 mg/kg + saline p.o.
Excerpt: Writhing, which is characterized by contraction of the abdominal musculature, extension of the hindlegs, and rotation of the trunk, was induced in albino male mice. The extent to which writhing is reduced following administration of a test compound is an indication of the analgesic activity of that compound.
Mice, weighing 18-24 grams, were fasted overnight and given the test compounds by gavage or subcutaneously. Writhing was then induced by the intraperitoneal administration of acetic acid (0.55 to 0.60 percent). Each treatment group consisted of five mice. The total number of writhes for the treatment group was determined during a 10-minute observation period starting five minutes after acetic acid administration.

[2] = administered alone (U.S. Pat. No. 4,035,511) or with morphine (U.S. Pat. No. 4,083,982); cited from earlier work

In the case of `NCCC(Oc1ccc(C(F)(F)F)cc1)c1ccccc1` (stereo not shown) [Norfluoxetine, 3-(4-trifluoromethylphenoxy)-3-phenylpropylamine], the “monoamine uptake blockade (in words)” value [1] is given as “block monoamine uptake, especially serotonin” and the “ability to potentiate analgesic effect of dextropropoxyphene (in words)” value (mouse writhing) is given as “potentiate the analgesic effect of dextropropoxyphene”.
For `CNCCC(Oc1ccc(C(F)(F)F)cc1)c1ccccc1` (stereo not shown) [Fluoxetine, 3-(4-trifluoromethylphenoxy)-N-methyl-3-phenylpropylamine], the “analgesic properties (in words)” value [2] is given as “possess analgesic properties” and the “ability to potentiate analgesic effect of dextropropoxyphene (in words)” value (mouse writhing) is given as “potentiate the analgesic effect of dextropropoxyphene”.
In the case of `CNCCC(Oc1ccc(C(F)(F)F)cc1)c1ccccc1` (stereo not shown) [Fluoxetine Hydrochloride], the “analgesic activity in mouse writhing test” value (mouse writhing; fluoxetine hydrochloride alone, doses up to 160 mg/kg, 30-180 minutes before writhing was induced) is reported as “devoid of analgesic activity”.
For `CCC(=O)O[C@](Cc1ccccc1)(c1ccccc1)[C@H](C)CN(C)C` [Dextropropoxyphene Napsylate], the ED50 (mouse writhing; Mus musculus, po, 0.5 h, Table 3, saline pretreatment p.o. three hours prior, dextropropoxyphene napsylate p.o. 30 minutes prior to assessment, read-out: Inhibition of Mouse Writhing ED50) was 44.2 mg/kg, the ED50 (mouse writhing; Mus musculus, po, 1 h, read-out: Inhibition of Mouse Writhing ED50) was 49.3 mg/kg and the inhibition at 10 mg/kg (mouse writhing; Mus musculus, po, 1 h, read-out: Percent Inhibition of Mouse Writhing) was 0%. The ED50 (mouse writhing; Mus musculus, sc, 0.5 h, read-out: Induced Inhibition of Mouse Writhing ED50) was 9.95 mg/kg, the “Percent Inhibition of Writhing” value (mouse writhing; 30 minutes after administration) was 40% and the “Percent Inhibition of Writhing” value (mouse writhing; 60 minutes after administration) was 6%. The “Percent Inhibition of Writhing” value (mouse writhing; 70 minutes after administration) was 10%, the “Percent Inhibition of Writhing” value (mouse writhing; 120 minutes after administration) was 28% and the “Percent Inhibition of Writhing” value (mouse writhing; 180 minutes after administration) was 5%. For the same compound, the “inhibition of mouse writhing (in words)” value (mouse writhing; dextropropoxyphene napsylate 10 mg/kg p.o. alone, 60 minutes prior to assessment) was “no inhibition of the writhing” and the “ED50 of dextropropoxyphene napsylate alone relative to that with fluoxetine hydrochloride” value (mouse writhing; s.c., 30 minutes, 20 mg/kg fluoxetine hydrochloride s.c. concomitantly) was “twice the amount needed”.
